# Test results taken from US7271278B2, “Application of chromium-amino acid complexes in the treatment of diabetes and other diseases” (The University of Wyoming, priority 2005, dated 2007).
# Assay: Deoxyribose degradation assay for generation of hydroxyl radicals
# Conditions: chromium picolinate 1.2 μM; Ferric-EDTA 100 μM; ascorbic acid and hydrogen peroxide 100 μM
# Method: The potential of chromium compounds to generate hydroxyl radicals in vitro was assessed by the method reported previously (Halliwell et al. (1987) Anal. Biochem., 165:215-219). Briefly, a reaction mixture containing either chromium picolinate or Cr(pa)3, 2-deoxyribose (4 mM), ascorbic acid (100 μM) and hydrogen peroxide (100 μM) in potassium phosphate buffer (pH 7.4, 10 mM) was incubated at 37° C. for 30 minutes. An aliquot of the mixture was treated with 1% (w/v) thiobarbituric acid and 2.8% (w/v) trichloroacetic acid and heated at 90° C. for 10 minutes, rapidly cooled and the amount of chromogen formed in the sample was measured by its absorption at 532 nm. Ferric-EDTA (100 μM) was used as a positive control.
compound,measurement,value
"O=C([O-])CN(CCN(CC(=O)[O-])CC(=O)O)CC(=O)[O-].[Fe+3] [Ferric-EDTA, reference compound]",hydroxyl radical production over control / reagent blank,about 3.5 fold
